What was measured:
insulin receptor = insulin receptor (Homo sapiens, UniProt P06213); settings: isolated cells; cited from earlier work
[1] = intravenous insulin tolerance test; cited from earlier work
[2] = glucose-dependent manner; cited from earlier work
ICAM-1 antigen = experiment: Flow cytometry of ICAM-1 antigen in stably transfected HeLa cells; type: cell-based, human; settings: HeLa cells stably expressing the peptide
Protocol: (§1) For this reason the function of the cloned cDNA was tested directly using pools of stably transfected HeLa cells. Expression of three families of endogenous IFN-gamma-responsive genes in this reporter cell line was determined by flow cytometry using monoclonal antibodies that recognize MHC class II antigens (HLA-DR, DP, and DQ alpha chains), MHC class I heavy chains (HLA-A, B, and C ), and ICAM-1 antigen.
(§2) The hPL(1-28)-encoding cDNA was subcloned into the mammalian expression vector pSH4-hphm using standard methods. HeLa cells (100 mm dishes) were transfected with […] of HPL(1-28)-pSH4-hph^m DNA or empty vector (negative control) by calcium phosphate-mediated transfection. Stable transfectants were selected with hygromycin at […] for at least 16 days. Flow cytometric analysis was performed on stably transfected pools of cells that were treated in culture with IFN-gamma (0, 20, 66, 200, and 1000 U/ml) for 42 h and suspended for analysis by light trypsinization. Cells were stained at 4° C. with 10 µg/ml solutions of mAb CR 3/43 (Dako) specific for MHC class II antigens HLA-DP, HLA-DQ, and HLA-DR, mAb G46-2.6 (Pharmingen) specific for MHC class I antigens HLA-A, HLA-B, and HLA-C heavy chains, mAb HA58 (Pharmingen) specific for ICAM-1 antigen, and either non-immune mouse IgG1 or IgG2a as negative control. Antibody binding was detected with FITC-goat anti-mouse antibody (Biomeda), and 20,000 cells were analyzed with a FACScan (Becton-Dickinson).

[3] = tested on: MHC class I antigens (HLA-A, B, and C); experiment: Flow cytometry of constitutive and IFN-gamma-inducible MHC class I antigens in stably transfected HeLa cells; type: cell-based, human; settings: HeLa cells stably expressing the peptide
Protocol: as §1
as §2, with “Cells were stained at 4° C. with 10 µg/ml solutions of mAb CR 3/43 (Dako) specific for MHC class II antigens HLA-DP, HLA-DQ, and HLA-DR, mAb G46-2.6 (Pharmingen) specific for MHC class I antigens HLA-A, HLA-B, and HLA-C heavy chains, mAb HA58 (Pharmingen) specific for ICAM-1 antigen, and either non-immune mouse IgG1 or IgG2a as negative control.” left out

[4] = tested on: MHC class II antigens (HLA-DR, DP, and DQ); experiment: Flow cytometry of IFN-gamma-inducible MHC class II antigens in stably transfected HeLa cells; type: cell-based, human; settings: HeLa cells stably expressing the peptide; any dose of IFN-gamma up to 1000 U/ml, 42 h; vs vector-transfected control cells
Protocol: as §1
as §2, with “Cells were stained at 4° C. with 10 µg/ml solutions of mAb CR 3/43 (Dako) specific for MHC class II antigens HLA-DP, HLA-DQ, and HLA-DR, mAb G46-2.6 (Pharmingen) specific for MHC class I antigens HLA-A, HLA-B, and HLA-C heavy chains, mAb HA58 (Pharmingen) specific for ICAM-1 antigen, and either non-immune mouse IgG1 or IgG2a as negative control.” left out

[5] = tested on: bovine brain capillary endothelial cell (BBCE); settings: cited from earlier work
hGH receptor = target: T1, hGH receptor (Homo sapiens, UniProt P10912); settings: relative to hGH; cited from earlier work
T1 sequence (P10912 19-638): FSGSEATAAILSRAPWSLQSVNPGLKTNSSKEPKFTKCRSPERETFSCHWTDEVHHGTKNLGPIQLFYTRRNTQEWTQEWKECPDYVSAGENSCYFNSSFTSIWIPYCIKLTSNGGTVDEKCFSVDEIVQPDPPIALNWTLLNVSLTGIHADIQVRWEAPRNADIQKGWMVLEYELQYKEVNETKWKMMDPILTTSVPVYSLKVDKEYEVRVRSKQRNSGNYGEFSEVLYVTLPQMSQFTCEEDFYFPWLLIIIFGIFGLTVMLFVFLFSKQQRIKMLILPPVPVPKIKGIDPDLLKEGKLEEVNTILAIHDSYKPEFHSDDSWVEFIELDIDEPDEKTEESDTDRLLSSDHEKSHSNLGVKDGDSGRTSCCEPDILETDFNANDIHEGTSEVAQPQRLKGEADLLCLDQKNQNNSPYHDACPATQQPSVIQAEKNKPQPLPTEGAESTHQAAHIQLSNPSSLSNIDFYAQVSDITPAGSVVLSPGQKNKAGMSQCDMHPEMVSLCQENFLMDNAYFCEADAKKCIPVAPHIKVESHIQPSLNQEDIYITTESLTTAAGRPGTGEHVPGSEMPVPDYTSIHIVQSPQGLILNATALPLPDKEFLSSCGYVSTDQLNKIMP

tonsil B-lymphocyte = settings: in vitro; exogenous full-length hormone; cited from earlier work
[6] = tested on: peripheral blood T-lymphocyte; settings: in vitro; exogenous full-length hormone; cited from earlier work

In the case of “hGH(6-13): octapeptide representing residues 6-13 of hGH (LSRLFDNA; UniProt P01241 32-39, looked up, fragment)”, the “binding of insulin to insulin receptor” value (insulin receptor) is given as “increased”, the hypoglycemic activity [1] is given as “hypoglycemic activity” and the insulin secretion [2] is given as “augmented”.

With “VQTVPLSRLFDHAMLQAHRAHQLAIDTY (VQTVPLSRLFKEAMLQAHRAHQLAIDTY; HOMO SAPIENS; hPL(1-28) peptide) [isolated peptide, N-terminal 28 residues of secreted human placental lactogen; tested as product of transfected cDNA]” the “fraction of ICAM-1 high-level positive cells” value (ICAM-1 antigen; 20 U/ml of IFN-gamma) was “less”, the “cells expressing ICAM-1 at high level” value (ICAM-1 antigen; absence of IFN-gamma treatment) was “More than 50%” and the “fraction of ICAM-1 high-level positive cells” value (ICAM-1 antigen; higher doses of IFN-gamma (above 20 U/ml)) was “still lower”. For the same molecule, the “IFN-gamma-induced high level expression of class I genes” value ([3]; IFN-gamma treatment 42 h) was “did not induce high level expression”, the “constitutive expression of MHC class I genes (HLA-A, B, and C antigens)” value ([3]; absence of IFN-gamma) was “not reduced” and the “levels of HLA-DR, DP, and DQ antigens after IFN-gamma treatment” value [4] was “not increased”.

B1: hPRL: Human prolactin (protein, UniProt P01236 29-227, looked up)
Prolactin: LPICPGGAARCQVTLRDLFDRAVVLSHYIHNLSSEMFSEFDKRYTHGRGFITKAINSCHTSSLATPEDKEQAQQMNQKDFLSLIVSILRSWNEPLYHLVTEVRGMQEAPEAILSKAVEIEEQTKRLLEGMELIVSQVHPETKENEIYPVWSGLPSLQMADEESRLSAYYNLLHCLRRDSHKIDNYLKLLKCRIIHNNNC
In the case of B1, the “effect on bFGF-induced BBCE cell proliferation” value [5] is given as “no significant additive somatotropic effect”.

B2: hPL: full-length human placental lactogen, mature polypeptide encoded by hPL-3 and hPL-4 genes (protein, UniProt P0DML2 27-217, looked up)
Chorionic somatomammotropin …: VQTVPLSRLFDHAMLQAHRAHQLAIDTYQEFEETYIPKDQKYSFLHDSQTSFCFSDSIPTPSNMEETQQKSNLELLRISLLLIESWLEPVRFLRSMFANNLVYDTSDSDDYHLLKDLEEGIQTLMGRLEDGSRRTGQILKQTYSKFDTNSHNHDALLKNYGLLYCFRKDMDKVETFLRMVQCRSVEGSCGF
For B2, the “binding to the hGH receptor, weaker than hGH” value (hGH receptor) is given as 2300 fold, the “effect on bFGF-induced BBCE cell proliferation” value [5] is given as “no significant additive somatotropic effect” and the “tonsil B-lymphocyte mitogenic response to lipopolysaccharide” value (tonsil B-lymphocyte) is given as “reduced”. For the same molecule, the “peripheral blood T-lymphocyte mitogenic response to phytohemagglutinin” value [6] was “reduced”.

Reference: US20020032154A1, “Interferon-suppressing placental lactogen peptides” (priority 2000, published 2002)
